Paper PMC5449093, “Selective inhibitors of trypanosomal uridylyl transferase RET1 establish druggability of RNA post-transcriptional modifications” (RNA Biology, 2016)

Columns and labels:
[1] = test system: PC12 cells; parameters: method as in PMID 9256496; details: concentrations of 10 μM; cited from earlier work
[2] = test system: T. brucei; assay: Treating T. brucei cultures with compounds, cell density counts; format: cell-based, Trypanosoma brucei; details: blood and insect forms; concentrations close to RET1 IC50 values (70μM and 2μM); Fig. S4
Method: Wild type blood form strain of trypanosomes were cultured to densities of 5 × 10^5 cells ml^−1 at 37 °C in HMI-9 medium, 1 % pen/strep, 10 % FCS, Puromycin 0.1 ug ml^−1 , zeocin 1 µg ml^−1. Test compounds in DMSO were added at varying concentrations (DMSO final concentration 1 %). The trypanosomes where then split 1/10 dilution and sub-cultured every 24 h to the same cell density (5 × 10^5 cells ml^−1). At 24 hour intervals, cell density measurements were performed using a hem cytometer. Test concentrations were determined by an initial dose finding experiment and compounds were tested at 0.2, 0.5 and 1 times a fatal dose. This was in the region of the IC50 for both compounds.

[3] = biological target: T1, RET1 (Trypanosoma brucei brucei, UniProt Q8WQX5, A749G/DEL18-18/G858D/N24H/V111I/W59S); assay: Luciferase coupled PPi assay, 384 well format, RET1; format: biochemical
T1 construct: Full-length RET1 protein (975aa) was expressed in E. coli as an N-terminal GST-tagged fusion protein; made in house; host or cells: E. coli BL21 (DE3)
Method: Reactions were made up in Corning® 384 Well Low Flange White Flat Bottom Polystyrene TC-Treated Micro plates (Product #3570). RET1 enzyme was added at 0.1 μl (0.2 mgml^−1), UTP (Thermo Scientific R0471 100 mM) and RNA substrate final concentrations were equal to their Km: 50 μM and 20 nM respectively.[18] The volume was made up to 10 μl with buffer 6 (Tris pH 7.5 10 mM, KCl 10 mM, DTT 1 mM, MgCl2 3.2 mM) and the reaction was incubated 20 mins at 25°C, then heat inactivated at 65°C for 10 mins. Test compounds were added in 0.5 μl of DMSO stock solution. The positive control included of 0.5 μl of DMSO. After a 10 min cooling period, 5 μl of each of detection and conversion reagents from PPiLight™ Inorganic Pyrophosphate Assay Kit (Lonza, LT07-610) were added. Luminescence was read with a Pherastar Plus micro plate reader. IC50 determinations were carried out in triplicate using the luciferase assay protocol in a dilution series of 1 mM to 99 nM.

[4] = test system: CID1 poly (U) polymerase; assay: biochemical; parameters: species or system Schizosaccharomyces pombe; details: RET1 over CID1, calculated from IC50 values
Method: (§1) Poly (U) polymerase from Schizosaccharomyces pombe, was obtained from NEB (M0337S). […]
(§2) Duplicate reactions were set up with each containing, 0.2 units of Cid1 enzyme, NEB (M0337S) with UTP at final concentration of 18 µM, RNA 3 nM, and buffer 6 up to a final volume of 10 µl. The reaction was done at 37°C for 20 mins, then the enzyme heat inactivated at 65 °C for 10 mins.

[5] = biological target: T2, CID1 poly (U) polymerase (Schizosaccharomyces pombe, UniProt O13833); assay: biochemical
T2 construct: purchased NEB M0337S
Method: as §1, §2

[6] = biological target: T1, RET1; assay: Gel based assay for RET1 uridylylation activity (Sybr Gold); format: biochemical; details: for Inhibition of RET1 uridylation of RNA, gel verification: inhibitor 50 µM, Fig. 3; for Gel Assay (qualitative activity in gel based assay): qualitative class: inactive, moderate or strong inhibitor, inhibitor 50 µM per method
Method: Individual reactions were made up in 0.2 ml PCR tubes (Peqlab 820264-A). RET1 enzyme (see SI text) was added (0.05 μl, 0.2 mg ml^−1), UTP (Thermo Scientific R0471 100 mM) was added to a final concentration of 50 μM. RNA substrate (see SI text) was added to a final concentration of 200 nM. Inhibitors were added as required (0.5 μl in DMSO) to a final concentration of 50 μM. When no inhibitor was included 5 % (vol/vol) DMSO was added as control. The volume was made up to 10 μl in buffer D (Tris pH 7.5 10 mM, KCl 200 mM, DTT 1 mM, EDTA 0.5 mM MgCl2 3.2 mM) and the reaction was incubated for 20 mins at 27°C, then inactivated at 65°C for 10 mins. RNA loading dye (10 μl, NEB B363A) was added and tubes were heated (5 mins at 70°C), 10 μl was loaded onto 15 % TBE urea pre-cast gel (Invitrogen EC68852) and run in 1 x TBE buffer for 1.5 h at 130 V. Gels were incubated with Sybr Gold nucleic acid stain (Life Technologies S11494) for 20 mins, then imaged on an ultraviolet trans-illuminator (BioDoc-It imaging system, UVP). Experiments were carried out in duplicate for each inhibitor.

[7] = RET1 IC50, PPi assay 384-well follow-up, UTP 50 µM, RNA 20 nM
[8] = RET1 Inhibition IC50, selectivity experiment, Table 2

Row | Structure (SMILES) | Toxicity to PC12 cells [1] | Toxicity to trypanosomes in culture [2] | IC50 [3, 7] [µM] | IC50 [3, 8] [µM] | RET1 Selectivity (fold) [4] [fold] | IC50 [5] [µM] | Inhibition of RET1 uridylation of RNA, gel verification [6] | Gel Assay (qualitative activity in gel based assay) [6]
1 | O=C(c1cc(O)c(O)c(O)c1)c1ccc(O)c(O)c1O [Compound 2, exifone] | not toxic | toxic to both blood and insect forms | 2 | 2 | 43 | 88 | effectively inhibit | Strong
2 | O=C(Nc1ccc(S(=O)(=O)N2CCOCC2)cc1)c1cc(Cl)ccc1NS(=O)(=O)c1ccc(Cl)s1 [Compound 1, Ataciguat] |  | toxic to both blood and insect forms | 70 | 73 | 66 | 4800 | effectively inhibit | Strong
